Reference: the supplement of paper PMC12463676, “Small-molecule dissolution of stress granules by redox modulation benefits ALS models” (Nature Chemical Biology, 2025)
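Further: each temperature applied for 3 min, abundance score taken as mean log2 fold change at the two lowest temperatures, z-score obtained by mean subtraction and division by SD.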

Sequence of UniProt P54652 (P54652 whole entry): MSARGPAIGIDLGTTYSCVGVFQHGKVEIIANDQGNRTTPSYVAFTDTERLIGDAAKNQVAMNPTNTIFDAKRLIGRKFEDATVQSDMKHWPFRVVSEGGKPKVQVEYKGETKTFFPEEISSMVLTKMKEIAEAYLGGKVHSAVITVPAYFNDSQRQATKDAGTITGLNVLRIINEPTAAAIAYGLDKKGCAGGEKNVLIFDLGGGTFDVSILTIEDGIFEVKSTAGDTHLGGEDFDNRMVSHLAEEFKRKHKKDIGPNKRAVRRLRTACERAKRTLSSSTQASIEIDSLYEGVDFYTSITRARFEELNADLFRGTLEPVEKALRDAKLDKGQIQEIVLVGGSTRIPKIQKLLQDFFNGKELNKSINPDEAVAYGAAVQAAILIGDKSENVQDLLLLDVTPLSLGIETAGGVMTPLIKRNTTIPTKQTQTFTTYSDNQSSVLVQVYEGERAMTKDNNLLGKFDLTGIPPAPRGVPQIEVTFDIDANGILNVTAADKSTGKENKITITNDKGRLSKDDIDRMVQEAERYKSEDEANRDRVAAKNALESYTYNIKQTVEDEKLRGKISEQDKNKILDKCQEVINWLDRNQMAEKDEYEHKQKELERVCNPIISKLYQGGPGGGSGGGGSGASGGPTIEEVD
Sequence of UniProt Q9NPF4 (Q9NPF4 whole entry): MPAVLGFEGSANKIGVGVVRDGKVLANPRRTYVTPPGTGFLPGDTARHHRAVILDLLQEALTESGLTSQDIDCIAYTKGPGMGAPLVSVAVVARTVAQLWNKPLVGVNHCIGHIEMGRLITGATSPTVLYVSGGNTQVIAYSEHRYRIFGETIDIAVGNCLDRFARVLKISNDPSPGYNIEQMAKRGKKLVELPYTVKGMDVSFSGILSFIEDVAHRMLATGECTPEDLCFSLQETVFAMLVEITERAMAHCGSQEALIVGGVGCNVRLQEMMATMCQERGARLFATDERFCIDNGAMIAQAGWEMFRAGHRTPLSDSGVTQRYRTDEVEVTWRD
Sequence of UniProt Q09019 (Q09019 whole entry): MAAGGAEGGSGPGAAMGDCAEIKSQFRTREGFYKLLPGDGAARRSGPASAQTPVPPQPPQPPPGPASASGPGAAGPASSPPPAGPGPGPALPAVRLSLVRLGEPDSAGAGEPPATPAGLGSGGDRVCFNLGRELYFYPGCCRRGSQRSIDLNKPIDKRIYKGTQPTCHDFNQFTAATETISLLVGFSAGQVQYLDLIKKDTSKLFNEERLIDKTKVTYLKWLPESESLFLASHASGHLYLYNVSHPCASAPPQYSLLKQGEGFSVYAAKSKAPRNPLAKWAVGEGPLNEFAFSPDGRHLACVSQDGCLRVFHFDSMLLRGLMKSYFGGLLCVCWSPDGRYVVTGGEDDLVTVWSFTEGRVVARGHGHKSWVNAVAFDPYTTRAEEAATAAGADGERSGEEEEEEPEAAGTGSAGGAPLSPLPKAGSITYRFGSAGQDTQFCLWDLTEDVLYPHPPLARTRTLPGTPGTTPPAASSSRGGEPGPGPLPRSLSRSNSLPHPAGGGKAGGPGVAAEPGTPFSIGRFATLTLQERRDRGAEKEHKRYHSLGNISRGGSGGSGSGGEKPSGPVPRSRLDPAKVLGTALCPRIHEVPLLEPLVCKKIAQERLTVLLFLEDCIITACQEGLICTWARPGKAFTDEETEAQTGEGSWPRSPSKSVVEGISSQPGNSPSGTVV
Sequence of UniProt Q8IWA0 (Q8IWA0 whole entry): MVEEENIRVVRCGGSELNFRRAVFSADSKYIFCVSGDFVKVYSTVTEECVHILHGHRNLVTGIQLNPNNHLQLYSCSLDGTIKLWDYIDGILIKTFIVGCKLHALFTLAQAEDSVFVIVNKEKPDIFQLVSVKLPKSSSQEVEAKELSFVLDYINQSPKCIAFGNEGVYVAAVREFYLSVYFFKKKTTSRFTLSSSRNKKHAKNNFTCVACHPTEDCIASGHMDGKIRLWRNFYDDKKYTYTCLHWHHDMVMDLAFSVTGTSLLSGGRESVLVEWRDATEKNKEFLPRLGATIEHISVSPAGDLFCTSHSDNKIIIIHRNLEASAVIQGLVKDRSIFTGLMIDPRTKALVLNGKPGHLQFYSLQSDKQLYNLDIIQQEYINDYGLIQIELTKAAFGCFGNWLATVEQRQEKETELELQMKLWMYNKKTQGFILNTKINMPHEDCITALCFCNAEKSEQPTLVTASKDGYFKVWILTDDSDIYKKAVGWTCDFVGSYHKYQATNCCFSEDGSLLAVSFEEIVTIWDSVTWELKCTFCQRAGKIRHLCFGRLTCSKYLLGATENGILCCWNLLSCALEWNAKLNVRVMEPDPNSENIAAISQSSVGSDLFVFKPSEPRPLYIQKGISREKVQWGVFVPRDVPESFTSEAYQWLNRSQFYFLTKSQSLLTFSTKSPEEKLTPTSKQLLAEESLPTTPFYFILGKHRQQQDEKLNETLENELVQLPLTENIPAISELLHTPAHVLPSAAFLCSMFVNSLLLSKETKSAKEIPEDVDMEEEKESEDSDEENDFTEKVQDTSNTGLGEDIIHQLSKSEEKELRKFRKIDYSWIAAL
Sequence of UniProt O15067 (O15067 whole entry): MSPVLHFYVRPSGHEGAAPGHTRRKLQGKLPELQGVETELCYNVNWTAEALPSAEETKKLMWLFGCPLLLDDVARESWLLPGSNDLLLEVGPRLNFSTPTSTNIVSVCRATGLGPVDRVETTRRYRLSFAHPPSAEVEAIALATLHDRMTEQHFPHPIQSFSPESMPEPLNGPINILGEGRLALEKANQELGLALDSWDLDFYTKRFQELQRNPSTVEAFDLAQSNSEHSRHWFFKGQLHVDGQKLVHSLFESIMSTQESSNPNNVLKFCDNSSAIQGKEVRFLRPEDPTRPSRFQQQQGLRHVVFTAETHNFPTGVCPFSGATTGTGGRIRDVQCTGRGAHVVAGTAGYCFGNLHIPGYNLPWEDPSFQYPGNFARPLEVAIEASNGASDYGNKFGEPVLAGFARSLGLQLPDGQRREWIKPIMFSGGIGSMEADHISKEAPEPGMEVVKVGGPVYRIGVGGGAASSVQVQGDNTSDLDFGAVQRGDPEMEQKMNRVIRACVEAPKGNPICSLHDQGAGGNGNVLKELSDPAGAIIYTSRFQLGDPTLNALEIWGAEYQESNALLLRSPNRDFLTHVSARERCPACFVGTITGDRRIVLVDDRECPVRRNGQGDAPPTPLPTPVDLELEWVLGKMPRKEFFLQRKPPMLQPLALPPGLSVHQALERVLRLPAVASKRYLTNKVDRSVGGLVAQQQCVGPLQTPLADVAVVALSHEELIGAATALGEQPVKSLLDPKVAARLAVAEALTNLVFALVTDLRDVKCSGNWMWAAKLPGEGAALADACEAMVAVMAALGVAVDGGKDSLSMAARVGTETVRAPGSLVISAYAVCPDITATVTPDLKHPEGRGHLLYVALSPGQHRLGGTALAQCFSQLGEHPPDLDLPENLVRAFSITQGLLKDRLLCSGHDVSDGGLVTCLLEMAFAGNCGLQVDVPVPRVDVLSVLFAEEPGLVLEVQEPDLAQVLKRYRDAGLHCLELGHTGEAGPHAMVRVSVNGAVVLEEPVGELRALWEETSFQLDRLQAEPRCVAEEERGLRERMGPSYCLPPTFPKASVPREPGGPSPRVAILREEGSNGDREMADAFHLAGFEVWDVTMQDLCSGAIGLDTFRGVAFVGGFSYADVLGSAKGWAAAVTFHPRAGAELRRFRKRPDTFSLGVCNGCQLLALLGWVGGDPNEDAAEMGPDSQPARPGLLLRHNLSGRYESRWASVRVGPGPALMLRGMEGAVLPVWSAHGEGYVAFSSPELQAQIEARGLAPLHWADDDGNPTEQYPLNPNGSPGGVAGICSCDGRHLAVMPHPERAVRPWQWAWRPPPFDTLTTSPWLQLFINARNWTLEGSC
Sequence of UniProt P32856 (P32856 whole entry): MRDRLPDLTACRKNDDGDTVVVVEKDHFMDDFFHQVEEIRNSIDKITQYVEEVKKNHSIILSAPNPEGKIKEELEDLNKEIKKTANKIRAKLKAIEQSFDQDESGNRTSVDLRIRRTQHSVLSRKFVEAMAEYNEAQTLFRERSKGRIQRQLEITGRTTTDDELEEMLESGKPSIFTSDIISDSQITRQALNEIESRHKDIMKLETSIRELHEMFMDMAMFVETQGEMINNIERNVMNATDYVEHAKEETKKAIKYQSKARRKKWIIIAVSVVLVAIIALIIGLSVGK
Sequence of UniProt P55039 (P55039 whole entry): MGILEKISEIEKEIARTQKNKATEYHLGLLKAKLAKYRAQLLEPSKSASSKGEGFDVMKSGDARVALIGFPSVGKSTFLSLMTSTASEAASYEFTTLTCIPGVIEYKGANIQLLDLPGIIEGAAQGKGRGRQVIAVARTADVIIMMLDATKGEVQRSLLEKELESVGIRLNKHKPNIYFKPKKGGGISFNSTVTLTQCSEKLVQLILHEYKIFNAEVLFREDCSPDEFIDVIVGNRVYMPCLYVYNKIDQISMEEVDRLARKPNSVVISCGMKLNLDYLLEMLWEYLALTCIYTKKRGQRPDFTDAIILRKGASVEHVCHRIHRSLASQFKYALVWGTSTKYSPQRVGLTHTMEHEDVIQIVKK
Sequence of UniProt P49069 (P49069 whole entry): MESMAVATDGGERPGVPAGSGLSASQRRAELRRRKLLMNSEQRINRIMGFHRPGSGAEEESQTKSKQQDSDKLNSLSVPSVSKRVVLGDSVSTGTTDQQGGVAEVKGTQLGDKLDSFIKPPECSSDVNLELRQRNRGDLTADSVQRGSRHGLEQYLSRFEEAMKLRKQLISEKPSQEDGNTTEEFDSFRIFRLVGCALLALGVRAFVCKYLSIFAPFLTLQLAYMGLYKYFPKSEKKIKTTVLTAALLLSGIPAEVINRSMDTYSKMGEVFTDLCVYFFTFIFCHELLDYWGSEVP
Sequence of UniProt P20338 (P20338 whole entry): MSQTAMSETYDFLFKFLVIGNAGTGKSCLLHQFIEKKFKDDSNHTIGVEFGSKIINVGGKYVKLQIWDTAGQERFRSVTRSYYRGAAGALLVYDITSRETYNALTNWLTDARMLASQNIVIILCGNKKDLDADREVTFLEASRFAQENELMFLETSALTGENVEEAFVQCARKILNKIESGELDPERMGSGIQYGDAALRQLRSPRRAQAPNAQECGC

These targets were tested with NC(=O)CCCCC1CCSS1 [lipoamide] (assay: thermal stability z-score vs DMSO; higher = more thermally stabilized by treatment). Conditions: HeLa; lipoamide concentration 100 µM; arsenate co-treatment: 1 mM arsenate 1 h.
Method: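 Cellular thermal proteome profiling in HeLa cells. Cells were treated with 100 µM lipoamide for 1 h, with or without 1 mM arsenate for a further 1 h, then heated to ten temperatures (37-66.3 °C), and soluble protein was quantified by TMT mass spectrometry relative to 0.1% DMSO controls. The thermal stability score (sum of log2 fold changes minus the abundance score) was transformed to a z-score; mean of n = 3 experiments.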
Work on NDUFS8 (UniProt O00217) yielded a thermal stability z-score of -0.474.
SMN1 (UniProt Q16637) gave a thermal stability z-score of 0.304.
With HSPA2 (UniProt P54652) the thermal stability z-score was -0.295.
FAM91A1 (UniProt Q658Y4) showed a thermal stability z-score of -0.0432.
With SLC18B1 (UniProt Q6NT16) the thermal stability z-score was -0.405.
LARS2 (UniProt Q15031) gave a thermal stability z-score of -0.0508.
For METTL7A (UniProt Q9H8H3), the thermal stability z-score was 2.84.
HNRNPC (UniProt P07910) showed a thermal stability z-score of 2.24.
With MTA2 (UniProt O94776) the thermal stability z-score was 0.669.
In the case of RAB4A (UniProt P20338), the thermal stability z-score is reported as 0.387.
For WDR75 (UniProt Q8IWA0), the thermal stability z-score was 0.0395.
DRG2 (UniProt P55039) was tested, and the thermal stability z-score was -0.439.
Target SKA2 (UniProt Q8WVK7) has a thermal stability z-score of -0.397.
With RAD50 (UniProt Q92878) the thermal stability z-score was 0.0652.
Work on CAMLG (UniProt P49069) yielded a thermal stability z-score of 0.508.
Target RAPH1 (UniProt Q70E73) has a thermal stability z-score of -0.113.
STX2 (UniProt P32856) showed a thermal stability z-score of 0.221.
For GNB2 (UniProt P62879), the thermal stability z-score was 0.297.
For RAB11B (UniProt Q15907), the thermal stability z-score was -0.384.
In the case of AGTRAP (UniProt Q6RW13), the thermal stability z-score is reported as 0.719.
Work on WNT5A (UniProt P41221) yielded a thermal stability z-score of -0.888.
In the case of MARCKS (UniProt P29966), the thermal stability z-score is reported as 0.62.
With PFAS (UniProt O15067) the thermal stability z-score was -0.279.
With ALCAM (UniProt Q13740) the thermal stability z-score was 0.558.
For GPR126 (UniProt Q86SQ4), the thermal stability z-score was -1.33.
DMWD (UniProt Q09019) was tested, and the thermal stability z-score was 0.459.
Work on SUPT4H1 (UniProt P63272) yielded a thermal stability z-score of -0.0276.
For OSGEP (UniProt Q9NPF4), the thermal stability z-score was -0.0754.
Target LRP8 (UniProt Q14114) has a thermal stability z-score of -0.785.
For FARP1 (UniProt Q9Y4F1), the thermal stability z-score was -0.118.

Same assay, conditions: HeLa; lipoamide concentration 100 µM; arsenate co-treatment: none
NDUFS8 (UniProt O00217) gave a thermal stability z-score of -0.512.
Work on SMN1 (UniProt Q16637) yielded a thermal stability z-score of 0.798.
In the case of HSPA2 (UniProt P54652), the thermal stability z-score is reported as 0.552.
Target FAM91A1 (UniProt Q658Y4) has a thermal stability z-score of -0.00182.
Work on SLC18B1 (UniProt Q6NT16) yielded a thermal stability z-score of -0.045.
Work on LARS2 (UniProt Q15031) yielded a thermal stability z-score of 0.0433.
METTL7A (UniProt Q9H8H3) gave a thermal stability z-score of 2.54.
In the case of HNRNPC (UniProt P07910), the thermal stability z-score is reported as 1.04.
With MTA2 (UniProt O94776) the thermal stability z-score was 0.591.
Work on RAB4A (UniProt P20338) yielded a thermal stability z-score of 0.311.
WDR75 (UniProt Q8IWA0) was tested, and the thermal stability z-score was 0.0658.
DRG2 (UniProt P55039) gave a thermal stability z-score of -0.192.
Target SKA2 (UniProt Q8WVK7) has a thermal stability z-score of -0.0647.
Target RAD50 (UniProt Q92878) has a thermal stability z-score of -0.163.
Target CAMLG (UniProt P49069) has a thermal stability z-score of 0.0877.
For RAPH1 (UniProt Q70E73), the thermal stability z-score was -0.22.
STX2 (UniProt P32856) gave a thermal stability z-score of -0.18.
For GNB2 (UniProt P62879), the thermal stability z-score was 1.21.
In the case of RAB11B (UniProt Q15907), the thermal stability z-score is reported as -1.01.
AGTRAP (UniProt Q6RW13) was tested, and the thermal stability z-score was 0.743.
WNT5A (UniProt P41221) was tested, and the thermal stability z-score was -0.379.
MARCKS (UniProt P29966) gave a thermal stability z-score of 0.121.
PFAS (UniProt O15067) showed a thermal stability z-score of 0.208.
ALCAM (UniProt Q13740) showed a thermal stability z-score of 0.931.
GPR126 (UniProt Q86SQ4) gave a thermal stability z-score of -1.02.
Work on DMWD (UniProt Q09019) yielded a thermal stability z-score of -0.167.
For SUPT4H1 (UniProt P63272), the thermal stability z-score was -0.173.
OSGEP (UniProt Q9NPF4) gave a thermal stability z-score of 0.487.
Work on LRP8 (UniProt Q14114) yielded a thermal stability z-score of -0.422.
FARP1 (UniProt Q9Y4F1) gave a thermal stability z-score of -1.38.

Each target was assayed with O=[As]([O-])(O)O.[K+] [potassium arsenate] in the same assay as above. Conditions: HeLa; arsenate concentration 1 mM.
Method: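 Cellular thermal proteome profiling in HeLa cells treated with 1 mM arsenate for 1 h (DMSO pretreatment), heated to ten temperatures (37-66.3 °C). Soluble protein was quantified by TMT mass spectrometry relative to DMSO controls; the thermal stability score was transformed to a z-score; mean of n = 3 experiments.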
With NDUFS8 (UniProt O00217) the thermal stability z-score was -0.279.
Work on SMN1 (UniProt Q16637) yielded a thermal stability z-score of -0.434.
With HSPA2 (UniProt P54652) the thermal stability z-score was 0.26.
Work on FAM91A1 (UniProt Q658Y4) yielded a thermal stability z-score of -0.0432.
SLC18B1 (UniProt Q6NT16) was tested, and the thermal stability z-score was -0.173.
LARS2 (UniProt Q15031) showed a thermal stability z-score of -0.741.
Work on METTL7A (UniProt Q9H8H3) yielded a thermal stability z-score of 0.632.
HNRNPC (UniProt P07910) gave a thermal stability z-score of 0.94.
Work on MTA2 (UniProt O94776) yielded a thermal stability z-score of -0.245.
In the case of RAB4A (UniProt P20338), the thermal stability z-score is reported as 0.408.
WDR75 (UniProt Q8IWA0) showed a thermal stability z-score of 0.152.
In the case of DRG2 (UniProt P55039), the thermal stability z-score is reported as -0.395.
SKA2 (UniProt Q8WVK7) showed a thermal stability z-score of -0.271.
Work on RAD50 (UniProt Q92878) yielded a thermal stability z-score of -0.768.
Target CAMLG (UniProt P49069) has a thermal stability z-score of 0.0417.
Target RAPH1 (UniProt Q70E73) has a thermal stability z-score of 0.0198.
With STX2 (UniProt P32856) the thermal stability z-score was -0.135.
With GNB2 (UniProt P62879) the thermal stability z-score was -0.44.
RAB11B (UniProt Q15907) gave a thermal stability z-score of -0.384.
Target AGTRAP (UniProt Q6RW13) has a thermal stability z-score of 1.66.
For WNT5A (UniProt P41221), the thermal stability z-score was 0.214.
MARCKS (UniProt P29966) was tested, and the thermal stability z-score was 0.943.
With PFAS (UniProt O15067) the thermal stability z-score was -1.25.
ALCAM (UniProt Q13740) gave a thermal stability z-score of 0.534.
For GPR126 (UniProt Q86SQ4), the thermal stability z-score was -0.42.
In the case of DMWD (UniProt Q09019), the thermal stability z-score is reported as 0.407.
SUPT4H1 (UniProt P63272) gave a thermal stability z-score of -0.164.
Target OSGEP (UniProt Q9NPF4) has a thermal stability z-score of -0.208.
Work on LRP8 (UniProt Q14114) yielded a thermal stability z-score of -0.43.
FARP1 (UniProt Q9Y4F1) was tested, and the thermal stability z-score was -2.23.
